Data reported in article PMC12040169 (PLOS Biology, 2025).
In brackets after ≈: the same amount, converted by molar mass.

Key:
[1] = in vitro; details: human, hela cells, % viability
[2] = tested on: HeLa; details: bulk resorufin, single well, 28.5 h, 10 µM, Bulk resorufin fluorescence
[3] = tested on: T1, CTL2-GFP (C. trachomatis L2/434/Bu, GFP-expressing); assay: microbe, parasite or virus in culture; set-up: C. trachomatis growth in HeLa, dose-response, mean of bulk GFP fluorescence and imaged total inclusion area; details: Chlamydia trachomatis, HeLa, 28.5 h; mean of GFP and inclusion area
T1 construct: L2/434/Bu, GFP-expressing
Text: (§1) We screened a library of 36,785 small molecules displaying drug-like properties and covering a wide chemical space (Fig 1A and S2A Data). In this process, we also complemented the assay described above with an imaging-based readout (Fig 1B). After measurements of bulk GFP and resorufin fluorescence, cells were fixed, stained with the DNA dye Hoechst, and imaged at a high-content imaging platform to detect chlamydial inclusions (GFP) and host cell nuclei (Hoechst). The total area and number of inclusions in individual wells and the number of nuclei then served as additional proxies for chlamydial growth and host cell viability. […] MICs were calculated as described above.

[4] = in vitro; set-up: Viability of infected HeLa host cells, resazurin conversion, bulk resorufin fluorescence relative to DMSO; details: human, hela cells; bulk resorufin, mean of 3
[5] = tested on: T1, CTL2-GFP (C. trachomatis L2/434/Bu, GFP-expressing); assay: microbe, parasite or virus in culture; set-up: species or system HeLa; C. trachomatis growth in HeLa, dose-response, mean of bulk GFP fluorescence and imaged total inclusion area; details: Chlamydia trachomatis, 28.5 h; mean of GFP and inclusion area
Text: as §1

Compound | viability at 28.5 h, 10 µM [1] [%] | % viability [2] [%] | IC50 [3] [µM] | viability at 28.5 h, 0.000416667 µM [4] [%] | viability at 28.5 h, 0.00125 µM [4] [%] | viability at 28.5 h, 0.00375 µM [4] [%] | viability at 28.5 h, 0.0123333 µM [4] [%] | viability at 28.5 h, 0.037 µM [4] [%] | viability at 28.5 h, 0.111 µM [4] [%] | viability at 28.5 h, 0.333 µM [4] [%] | viability at 28.5 h, 1 µM [4] [%] | viability at 28.5 h, 3 µM [4] [%] | viability at 28.5 h, 10 µM [4] [%] | viability at 28.5 h, 30 µM [4] [%] | MIC [5] [µM]
O=C(O)c1cccc2c1C(=O)N(Cc1ccccc1)C2 [CBK286872] | 91 | 89.1 |  |  |  |  |  |  |  |  |  |  |  |  | 
NS(=O)(=O)c1ccc2nc(NC(=O)c3ccc(Cl)s3)sc2c1 [CBK287320] | 108 | 89.6 |  |  |  |  |  |  |  |  |  |  |  |  | 
Cc1ccc(-c2csc3c(=O)[nH]c(N4CCC5(CC4)OCCO5)nc23)cc1 [CBK288034] | 83.9 | 92.2 |  |  |  |  |  |  |  |  |  |  |  |  | 
NCCc1c(C23CC4CC(CC(C4)C2)C3)[nH][nH]c1=O [CBK288081] | 86.5 | 106 |  |  |  |  |  |  |  |  |  |  |  |  | 
O=C(CC1C(=O)NC(=O)N1Cc1ccccc1)NCc1ccccc1 (centres unmarked) [CBK288083] | 87.8 | 94.6 |  |  |  |  |  |  |  |  |  |  |  |  | 
Cc1ccc(Nc2cc(N3CCC(C(=O)O)CC3)ncn2)cc1 [CBK288121] | 104 | 91.3 |  |  |  |  |  |  |  |  |  |  |  |  | 
CN1CCc2[nH]c(=S)c(C#N)c(-c3ccccc3)c2C1 [CBK288354] | 96.5 | 87.1 |  |  |  |  |  |  |  |  |  |  |  |  | 
C/C(=N\O)c1cc2cc(Cl)cc(Cl)c2oc1=O [CBK288516] | 84.5 | 90.6 |  |  |  |  |  |  |  |  |  |  |  |  | 
COc1ccccc1N1C(=O)CC(=O)N=C1S [CBK288517] | 89.5 | 89.3 |  |  |  |  |  |  |  |  |  |  |  |  | 
Cc1cc(CNC(=S)NC2CCCCC2)nn1C [CBK288519] | 82.5 | 94 |  |  |  |  |  |  |  |  |  |  |  |  | 
COCCn1c(S)nc(=O)c2cc(C)cnc21 [CBK288520] | 88 | 92.2 |  |  |  |  |  |  |  |  |  |  |  |  | 
O=C1CSC(c2ccc(Br)cc2)N1O (centres unmarked) [CBK288521] | 89 | 97.7 |  |  |  |  |  |  |  |  |  |  |  |  | 
CCOc1ccc(CCN2C(=O)CN=C2S)cc1OCC [CBK288528] | 103 | 98.3 |  |  |  |  |  |  |  |  |  |  |  |  | 
Cc1ccc(Cn2cc(Br)c(NC(=O)C(=O)O)n2)cc1 [CBK288529] | 96.9 | 88.4 |  |  |  |  |  |  |  |  |  |  |  |  | 
COc1ccc(C(NC(=O)Cc2cn3ccsc3n2)C2CC(O)C2)cn1 (centres unmarked) [CBK306910] | 82.2 | 97 |  |  |  |  |  |  |  |  |  |  |  |  | 
COc1nccc(NC(c2cnn(C)c2)[C@H]2C[C@H](O)C2)c1C#N (some centres unmarked) [CBK307283] | 94 | 91.1 |  |  |  |  |  |  |  |  |  |  |  |  | 
OCCNc1nc(Nc2ccc(Br)cc2)nc2ccccc12 [c17e] |  |  | 1.24 | 95.2 | 87.1 | 86.4 | 86.4 | 88.2 | 83.5 | 88.9 | 86 | 84.9 | 81.2 | 71.2 | 3.14 (≈ 1.13 µg/mL)
COCCNc1nc2c(c(N3CCCCCC3)n1)CCNCC2 [c18e] |  |  | 1.27 | 113 | 109 | 109 | 108 | 110 | 106 | 107 | 102 | 108 | 101 | 103 | 1.94 (≈ 0.619 µg/mL)
CC1=C(C)C(=NNC(N)=S)C(C)=C(C)C1=NNC(N)=S [c19e] |  |  | 1.39 | 101 | 103 | 109 | 101 | 101 | 107 | 104 | 103 | 107 | 109 | 114 | 3.58 (≈ 1.11 µg/mL)
Cc1noc(-c2ccc3c(c2O)OCCO3)c1-c1ccc(Cl)cc1 [c20e] |  |  | 1.39 | 99.7 | 97 | 93.1 | 91.8 | 94.3 | 86.5 | 88.7 | 86.1 | 83.4 | 85.9 | 75.6 | 2.69 (≈ 0.926 µg/mL)
Fc1cccc(F)c1OCCOc1nc(N2CCNCC2)ccc1C(F)(F)F [c21e] |  |  | 1.7 | 85.4 | 87.7 | 84 | 87.6 | 84.7 | 89.9 | 90.4 | 93.9 | 87.9 | 91.3 | 0 | 8.28 (≈ 3.34 µg/mL)
O=[N+]([O-])c1ccc2[nH]c3c(c2c1)CCCC3NC1CCN(CCc2ccccc2)CC1 (centres unmarked) [c23e] |  |  | 2.18 | 96.2 | 90.3 | 91.9 | 88 | 86.6 | 87.4 | 90.5 | 83.9 | 93.2 | 76 | 6.18 | 4 (≈ 1.68 µg/mL)
COc1ccc(C2CC(=O)C=C(Nc3cc(Cl)ccc3O)C2)cc1 (centres unmarked) [c24e] |  |  | 2.46 | 94 | 92.4 | 94.1 | 84.9 | 89.8 | 84.5 | 88.6 | 85.7 | 87.6 | 83.7 | 88.4 | 5.71 (≈ 1.96 µg/mL)
COCC(=O)N[C@H]1C[C@H]2C(=O)Nc3ccc(/C=C/c4ccccc4)cc3C(=O)N2C1 [c25e] |  |  | 2.47 | 97.4 | 103 | 99.5 | 105 | 100 | 98.6 | 102 | 106 | 110 | 113 | 113 | 9.14 (≈ 3.71 µg/mL)
O=C(Nc1ccc(OC(F)(F)F)cc1)Nc1cc(-c2cccs2)n[nH]1 [c26e] |  |  | 2.5 | 104 | 100 | 99.3 | 100 | 96.1 | 106 | 106 | 108 | 105 | 103 | 96.4 | 3.98 (≈ 1.47 µg/mL)
